Reference: patent US11185523B2, “Use of bipolar trans carotenoids with chemotherapy and radiotherapy for treatment of cancer” (DIFFUSION PHARMACEUTICALS LLC, priority 2016, dated 2021)

Tests used:
[1] = Change in partial pressure of oxygen, low vs high efficacious dose (FIG. 1); type: in vivo; conditions: FIG. 1 hyperoxic rat
Method: FIG. 1 illustrates the change in partial pressure of oxygen of a hyperoxic rat resulting from administration of a low efficacious dose amount compared to a high efficacious dose amount of TSC.
It has been discovered that for a mammal, there are two concentrations of a bipolar trans carotenoid, such as TSC, that result in increased oxygen partial pressure—the “low” dose and the “high” dose—in a tumor. For humans, the low dose range is 0.15-0.35 mg/kg and the high dose range is 0.75 to 2.0 mg/kg. Both doses result in approximately the same maximum increase in oxygen partial pressure.

hypoxic tissue = experiment: Reoxygenation of hypoxic tissue after low and high dose; type: in vivo, human; conditions: humans
Description: With bipolar trans carotenoids such as TSC, there are discrete concentrations that produce efficacy in causing maximum oxygen partial pressure in animals or humans.

VEGF A gene = experiment: Expression of HIF1 targeted genes in hypoxic conditions; conditions: gene upregulated with hypoxia
Description: The subject disclosure relates to the treatment of various tumors and/or cancers (i.e., gliobastoma, pancreatic cancer, etc.). It is well established that tumors are hypoxic with many tumor types being highly hypoxic. Further, it is known that hypoxic tumors are more resistant to radiotherapy and chemotherapy. Through HIF1 alpha up-regulation, hypoxia is associated with multiple negative effects that lead to aggressive tumor phenotypes. These effects include increased angiogenesis, increased metastasis, as well as increased resistance to chemotherapy and radiation therapy. Hypoxia via HIF1a affects many genes involved in cancer progression. Bipolar trans carotenoids such as TSC alter expression of HIF1 targeted genes in hypoxic conditions.

[2] = test system: Cancer: Radiation Sensitizer; experiment: Pre-clinical efficacy study: Cancer: Radiation Sensitizer; type: in vivo
Description: (§1) It has also been determined that several non-cancer disorders are beneficially treated utilizing an administration regimen of a bipolar trans carotenoid such as TSC, as described below.

Cancer Chemosensitizer = experiment: Pre-clinical efficacy study: Cancer Chemosensitizer; type: in vivo; conditions: Rat
Description: as §1

Critical Limb Ischemia = experiment: Pre-clinical efficacy study: Critical Limb Ischemia; type: in vivo; conditions: Mouse
Description: as §1

newly diagnosed GBM = experiment: Phase ½ clinical trial of TSC with RT and TMZ in GBM; type: in vivo, human; conditions: for Observed Survival Rate with TSC Treatment (Kaplan-Meier): TSC 0.25 mg/kg IV 3 times per week about 45 minutes prior to RT, plus TMZ
Description: To date, TSC has been used in 148 human subjects […] […] A Phase 1⁄2 clinical trial was recently completed examining TSC in patients with GBM. The Phase 1⁄2 clinical trial in GBM enrolled 59 patients with newly diagnosed disease that received TSC in conjunction with radiation therapy (RT) and temozolomide (TMZ). In the Phase I portion of the trial TSC was initially administered three times per week at half-dose to three patients prior to radiation. Six additional patients received full dose TSC for six weeks in combination with radiation. […] Fifty additional patients were enrolled in the Phase II trial at full dose TSC in combination with TMZ and RT. Four weeks after completion of RT, all patients resumed TMZ for five days every four weeks, but no further TSC was administered. More specifically, fifty-nine patients with newly-diagnosed GBM were enrolled. Patients received standard of care (SOC) radiation therapy (RT) (2 Gy/day, 5 days/week for 6 weeks) and TMZ (75 mg/m2) starting within 5 weeks after a surgical resection of their tumor, if such surgery were possible. Patients receiving only needle biopsies (i.e., no surgery) were also enrolled. In addition to the SOC, TSC was administered 3 times per week, 0.25 mg/kg IV, usually on Monday, Wednesday and Friday, about 45 minutes prior to the RT sessions. Four weeks after completion of RT, patients began chemotherapy with TMZ for 5 days of the first week of a 4 week cycle. This continued for 6 such cycles. No TSC was administered during this chemotherapy.

[3] = Phase 1 and Phase 2 clinical trials of TSC, safety; type: in vivo; conditions: 148 human subjects
Description: A Phase ½ clinical trial was recently completed examining TSC in patients with GBM. The Phase ½ clinical trial in GBM enrolled 59 patients with newly diagnosed disease that received TSC in conjunction with radiation therapy (RT) and temozolomide (TMZ). In the Phase I portion of the trial TSC was initially administered three times per week at half-dose to three patients prior to radiation. Six additional patients received full dose TSC for six weeks in combination with radiation. […] Fifty additional patients were enrolled in the Phase II trial at full dose TSC in combination with TMZ and RT. Four weeks after completion of RT, all patients resumed TMZ for five days every four weeks, but no further TSC was administered.

DMBA breast tumors = experiment: DMBA breast tumor model, TSC before chemotherapy; type: in vivo

## CC(/C=C/C=C(\C)C(=O)[O-])=C\C=C\C=C(C)\C=C\C=C(/C)C(=O)[O-].[Na+].[Na+] [TSC, trans sodium crocetinate]
[1]
  oxygen partial pressure, duration of maximum: sustained maximum oxygen partial pressure
Hypoxic tissue; high dose of 0.75-2.0 mg/kg, e.g. 1.5 mg/kg
  duration of maximum reoxygenation: lasts for over an hour
Hypoxic tissue; low dose of 0.15-0.35 mg/kg
  duration of maximum reoxygenation: lasts for a short time
Hypoxic tissue; low dose of 0.15-0.35 mg/kg, e.g. 0.25 mg/kg
  time of maximum reoxygenation of hypoxic tissue after injection: 50 min
VEGF A gene
  VEGF A gene expression: down regulated
[2]; Mouse
  Best Dosage: Low
[2]; Rat
  Best Dosage: Low
Cancer Chemosensitizer
  Best Dosage: High
Critical Limb Ischemia
  Best Dosage: High
Newly diagnosed GBM; 1 year
  Observed Survival Rate with TSC Treatment (Kaplan-Meier): 71.2%
Newly diagnosed GBM; 2 years
  Observed Survival Rate with TSC Treatment (Kaplan-Meier): 36.3%
Newly diagnosed GBM; 37 patients with partial resection or no resection, MRI
  reduction in tumor size: vast majority of these 37 patients showed reduction in tumor size
Newly diagnosed GBM; all groups of patients administered TSC in addition to SOC treatment
  survival at 2 years vs historical controls: better survival at 2 years
Newly diagnosed GBM; at both 1 and 2 years
  survival greater than rate in historical trial: 10%
Newly diagnosed GBM; biopsy-only patients
  survivability at two years: 42.9%
Newly diagnosed GBM; full-dose patients
  patients showing complete elimination of tumors: ~20%
Newly diagnosed GBM; low dose (0.25 mg/kg) 45 minutes before radiation
  effect on glioblastoma multiforme tumors: effective
Newly diagnosed GBM; nine patients, Phase I portion, half-dose and full dose TSC with radiation
  dose-limiting toxicities: No dose-limiting toxicities were identified
Newly diagnosed GBM; subgroup of patients considered inoperable, vs control
  increase in chance of survival at two years: over 100%
Newly diagnosed GBM; subgroup of patients considered inoperable, less than 20 percent in the control
  alive at two years: 40%
[3]
  serious adverse events: no serious adverse events reported
DMBA breast tumors; low dose (for rats) 0.1 mg/kg TSC IV 50 minutes before chemotherapy
  effect on tumor volume with cisplatin: not effective
DMBA breast tumors; low dose of TSC 50 minutes before chemotherapy
  effect on tumor volume with gemcitabine: not effective
